The nature of data set [1]: Antioxidant activity assessed as […] radical scavenging activity preincubated for 30 mins followed by AAPH addition and measured every minute for 2 hrs by ORAC fluorescein assay relative to trolox. Format: functional.
Data set [2] addresses T1, 5-hydroxytryptamine receptor 4 (Homo sapiens, UniProt Q13639). Description: Displacement of [3H]-GR 113808 from recombinant human brain 5HT4 receptor at 10^-6 M measured after 60 mins by radio ligand binding assay relative to control. On the technique in general: Displacement assays read how much labelled ligand stays bound in the presence of the test substance.
Data set [3] has as its system SH-SY5Y. As to the kind of experiment: Cytotoxicity against human SH-SY5Y cells assessed as reduction in cell viability at 50 uM measured after 24 hrs by MTT assay relative to control. Type of data set: cell-based. Background: Tetrazolium dyes change colour on reduction, which living cells bring about.
The target in data set [4] is T1, 5-hydroxytryptamine receptor 4. As to the kind of experiment: Displacement of [3H]-GR 113808 from recombinant human brain 5HT4 receptor at 10^-8 M measured after 60 mins by radio ligand binding assay relative to control.
The test system of data set [5] is SH-SY5Y. As to the kind of experiment: Antioxidant activity in human SH-SY5Y cells assessed as inhibition of t-BuOOH-induced intracellular oxidative stress by measuring ROS level at 10 uM preincubated for 24 hrs followed by t-BuOOH addition and measured after 30 mins by DCFH-DA dye-based fluorescence assay relative to control. Type of data set: functional.
Data set [6] concerns the target T1, 5-hydroxytryptamine receptor 4. As to the kind of experiment: Binding affinity to recombinant human brain 5HT4 receptor by radio ligand binding assay.
For data set [7] the target is unchanged. Description: Agonist activity at human HA-tagged 5HT4 receptor expressed in COS7 cells assessed as induction of cAMP production measured after 10 mins by HTRF assay relative to control. Type of data set: functional, cell-based.
For data set [8], the system named is SH-SY5Y. As to the kind of experiment: Cytotoxicity against human SH-SY5Y cells assessed as reduction in cell viability at 0.5 to 10 uM after 24 hrs by MTT assay relative to control. Format: cell-based.
Data set [9] deals with T1, 5-hydroxytryptamine receptor 4. As to the kind of experiment: Partial agonist activity at human HA-tagged 5HT4 receptor expressed in COS7 cells assessed as induction of cAMP production measured after 10 mins by HTRF assay. Type of data set: functional, cell-based. Background: Changes in cAMP serve as a functional read-out for many G protein-coupled receptors.
The target is the same in data set [10]. Description: Displacement of [3H]-GR 113808 from recombinant human brain 5HT4 receptor measured after 60 mins by radio ligand binding assay.
A short description of data set [11]: Antioxidant activity assessed as DPPH radical scavenging activity measured after 120 mins. Format: functional.
The test system of data set [12] is SH-SY5Y. As to the kind of experiment: Cytotoxicity against human SH-SY5Y cells assessed as reduction in cell viability at 0.5 to 10 uM measured after 24 hrs by MTT assay. Type of data set: cell-based.
Data set [13] addresses Acetylcholinesterase (Homo sapiens, UniProt P22303). As to the kind of experiment: Inhibition of human erythrocytes AChE assessed as reduction in 5-thio-2-nitrobenzoate anion formation using acetylthiocholine iodide as substrate preincubated for 5 mins followed by substrate addition by Ellman's method.
The subject of data set [14] is SH-SY5Y. As to the kind of experiment: Antioxidant activity in human SH-SY5Y cells assessed as inhibition of t-BuOOH-induced intracellular oxidative stress by measuring ROS level at 100 uM preincubated for 24 hrs followed by t-BuOOH addition and measured after 30 mins by DCFH-DA dye-based fluorescence assay. Type of data set: functional, cell-based.

Calls of active or inactive are those of the source. No cut-off for these calls is given here.

Usually inhibition stands for how much of the control response was suppressed. The Ki is a dissociation constant, usually derived from enzyme kinetics or from competition with a known ligand. For orientation: Emax means the maximal effect, on the per cent scale that the assay sets. By EC50 is commonly meant the concentration at which the effect is half-maximal. What is called IC50 is the concentration needed to halve the response being measured.

T1 sequence (Q13639 whole entry): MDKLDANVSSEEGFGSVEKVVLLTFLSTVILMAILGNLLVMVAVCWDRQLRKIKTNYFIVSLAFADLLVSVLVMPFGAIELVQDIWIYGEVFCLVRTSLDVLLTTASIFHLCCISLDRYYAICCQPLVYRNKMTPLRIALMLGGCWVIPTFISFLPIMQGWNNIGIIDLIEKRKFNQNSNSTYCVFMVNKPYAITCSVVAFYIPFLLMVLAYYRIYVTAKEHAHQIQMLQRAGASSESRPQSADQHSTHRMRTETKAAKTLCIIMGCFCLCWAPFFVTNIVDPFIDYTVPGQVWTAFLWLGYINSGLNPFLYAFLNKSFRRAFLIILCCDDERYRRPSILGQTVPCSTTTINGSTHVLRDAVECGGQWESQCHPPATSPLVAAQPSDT
Sequence of Acetylcholinesterase (P22303 whole entry): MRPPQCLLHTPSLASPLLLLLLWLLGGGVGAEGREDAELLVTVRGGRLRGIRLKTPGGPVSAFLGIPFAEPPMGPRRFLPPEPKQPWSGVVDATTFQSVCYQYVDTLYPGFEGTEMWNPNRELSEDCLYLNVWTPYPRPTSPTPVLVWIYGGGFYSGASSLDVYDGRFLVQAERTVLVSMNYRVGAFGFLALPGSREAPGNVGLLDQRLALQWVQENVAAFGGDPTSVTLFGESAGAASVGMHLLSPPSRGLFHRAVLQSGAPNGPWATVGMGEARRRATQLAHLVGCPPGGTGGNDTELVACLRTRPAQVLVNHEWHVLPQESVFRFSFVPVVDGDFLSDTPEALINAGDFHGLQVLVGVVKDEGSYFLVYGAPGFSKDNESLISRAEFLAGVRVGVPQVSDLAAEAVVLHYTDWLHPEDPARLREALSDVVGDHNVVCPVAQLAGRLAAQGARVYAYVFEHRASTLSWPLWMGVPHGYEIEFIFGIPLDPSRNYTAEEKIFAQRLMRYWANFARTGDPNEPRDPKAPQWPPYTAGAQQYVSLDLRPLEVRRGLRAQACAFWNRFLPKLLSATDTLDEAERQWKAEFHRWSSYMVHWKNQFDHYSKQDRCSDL

In the case of `COc1cc(/C=C/C(=O)NCCN2CCC(CCC(=O)c3cc(Cl)c(N)cc3OC)CC2)ccc1O`, the fold change (FC) in data set [1] is 1.47. Moreover, the inhibition in data set [2] turned out to be 100%; in data set [4], 39%. Besides, the results for the Activity in [3] and in data set [8] were 68% and 12%, respectively. For the same molecule, in data set [5], the inhibition at 10 µM was determined as 50%. Further, the Ki in data set [6] came out at 101 nM. In data set [7], the Emax worked out at 47%. The half-maximal effective concentration (EC50) in data set [9] was 4.5 nM; in data set [11], 45500 nM. Further, the concentration for half-maximal inhibition (IC50) in data set [10] is 101 nM.

For the molecule `COc1cc(N)c(Cl)cc1C(=O)CCC1CCN(Cc2ccc3c(c2)OCO3)CC1`, the fold change (FC) in data set [1] was under 0.2. In addition, the inhibition in data set [2] was found to be 100%; in data set [4] it was 22%. For the same molecule, the EC50 in data set [11] is over 250000 nM.

Regarding `COc1cc(N)c(Cl)cc1C(=O)CCC1CCN(Cc2ccc(OCc3ccccc3)c(OCc3ccccc3)c2)CC1`, in data set [1], the fold change (FC) was under 0.2. The results for the inhibition in data set [2] and in data set [4] were 89% and 3%, respectively. Further, the EC50 in data set [11] is over 250000 nM.

Take `COc1ccc(CN2CCC(CCC(=O)c3cc(Cl)c(N)cc3OC)CC2)cc1O`: the fold change (FC) in data set [1] is 3.41. The values for the inhibition in data set [2] and in data set [4] were 100% and 64%, respectively. The figures for the Activity in [3] and in data set [12] were 40% and “Non-Toxic”, respectively. Besides, the inhibition at 10 µM in [5] was 50%. Moreover, the inhibition constant (Ki) in data set [6] is 12.7 nM. Further, in data set [7], the maximal effect (Emax) turned out to be 57%. The figures for the EC50 in data set [9] and in data set [11] were 1.4 nM and 85500 nM, respectively. Also, the IC50 in [10] is 14.5 nM.

`COc1ccc(CN2CCC(CCC(=O)c3cc(Cl)c(N)cc3OC)CC2)cc1OCc1ccccc1`: in data set [1], the fold change (FC) is under 0.2. Also, the inhibition in data set [2] turned out to be 88%; in data set [4] it was 7%. In addition, in data set [11], the EC50 is over 250000 nM.

Turning to `COc1cc(N)c(Cl)cc1C(=O)CCC1CCN(Cc2ccc(O)c(O)c2)CC1`, the fold change (FC) in data set [1] came out at 3.4. Besides, the inhibition was found to be 100% in data set [2] and 76% in data set [4]. In addition, the Activity in [3] is recorded as 37%; in data set [12], “Non-Toxic”. The inhibition at 10 µM in data set [5] was 50%. Besides, the Ki in data set [6] was 5.9 nM. Moreover, the Emax in [7] amounted to 72%. The results for the IC50 in data set [13] and in [10] were 138 nM and 7.5 nM, respectively. Moreover, the half-maximal effective concentration (EC50) in data set [9] was 2.8 nM; in data set [11], 19600 nM.

Turning to `O=c1c(O)c(-c2ccc(O)c(O)c2)oc2cc(O)cc(O)c12` [QUERCETIN], the fold change (FC) in [1] amounted to 6.5. Besides, the EC50 in data set [11] turned out to be 9300 nM.

For the molecule `COc1cc(CN2CCC(CCC(=O)c3cc(Cl)c(N)cc3OC)CC2)ccc1O`, the fold change (FC) in data set [1] worked out at 3.88. The results for the inhibition in data set [2] and in data set [4] were 95% and 7%, respectively. The half-inhibitory concentration (IC50) in data set [13] was found to be 535 nM. In data set [11], the EC50 turned out to be 180000 nM.

Take `COc1cc(N)c(Cl)cc1C(=O)CCC1CCN(CCNC(=O)CCCC[C@@H]2CCSS2)CC1`: the fold change (FC) in data set [1] is 0.76. Also, the figures for the inhibition in data set [2] and in data set [4] were 99% and 26%, respectively. Also, the Activity is on record as 48% in data set [3] and “Non-Toxic” in [12]. Besides, the inhibition entry in data set [5] was “inactive”. Further, the EC50 in data set [11] was over 250000 nM.

With `NCCc1c[nH]c2ccc(O)cc12`, the inhibition in data set [2] worked out at 65%; in data set [4] it was 0%.

Consider `COc1cc(CN2CCC(CCC(=O)c3cc(Cl)c(N)cc3OC)CC2)ccc1OCc1ccccc1`, for which, in [1], the fold change (FC) was under 0.2. The inhibition in data set [2] was 97%; in data set [4], 0%. Further, the EC50 in data set [11] is over 250000 nM.

For `Cc1c(C)c2c(c(C)c1O)CCC(C)(C(=O)O)O2` (stereo not drawn) [TROLOX], the EC50 in [11] stood at 22900 nM. For the same molecule, in [14], the inhibition result is “Active”.

These data come from ChEMBL document CHEMBL4359885, “Novel multi target-directed ligands targeting 5-HT4 receptors with in cellulo antioxidant properties as promising leads in Alzheimer's disease” (Eur J Med Chem, 2019).
